# Assay results reported in US8703722B2, “Inhibitors of F18+ E coli binding” (priority 2008, dated 2014).
# Key:
# [1] = test system: recombinant F18 fimbriae-expressing Escherichia coli (pIH120); experiment: Chromatogram binding assay: 35S-labelled F18 fimbriae-expressing E. coli to glycosphingolipids on thin-layer chromatograms; conditions: for Binding of F18-fimbriated E. coli (in words): chromatogram binding assay, F18-expressing strain HB101(pIH120); for Detection limit of binding of F18-fimbriated E. coli: dilutions of glycosphingolipids on thin-layer chromatograms
# Experimental: Recombinant E. coli strains expressing whole F18 fimbriae (HB101(pIH120), or F18 fimbriae with deletion of the FedF adhesive subunit (HB101(pIH126)) (Imberechts et al., 1992; 1996), were grown on Iso Sensitest agar plates (Oxoid, Basingstoke, Hampshire, England) supplemented with ampicillin (100 μg/ml) at 37° C. over night. For metabolic labeling, the culture plates were supplemented with 10 μl ^35S-methionine (400 μCi; Amersham Pharmacia Biotech). Bacteria were harvested, washed three times in PBS, and resuspended in PBS containing 2% (w/v) bovine serum albumin, 0.1% (w/v) NaN3 and 0.1% (w/v) Tween 20 (BSA/PBS/TWEEN) to a bacterial density of 1×10^8 colony forming units/ml.
# Aluminium- or glass-backed silica gel 60 high performance thin-layer chromatography plates (Merck, Darmstadt, Germany) were used for thin-layer chromatography, and eluted with chloroform/methanol/water (60:35:8, by volume) as solvent system. The different glycosphingolipids were applied to the plates in quantities of 0.002-4 μg of pure glycosphingolipids and 40 μg of glycosphingolipid mixtures. Chemical detection was done with anisaldehyde (Waldi D, 1962. Sprühreagentien für die dünnschicht-chromatographie, p. 496-515. In Stahl, E. (ed.), Dünnschicht-Chromatographie. Springer-Verlag, Berlin).
# Binding of radiolabelled bacteria to glycosphingolipids on thin-layer chromatograms was done as described previously (Hansson G C, Karlsson K-A, Larson G, Strömberg N, Thurin J, 1985. Anal. Biochem. 146:158-163). Dried chromatograms were dipped in diethylether/n-hexane (1:5 v/v) containing 0.5% (w/v) polyisobutylmethacrylate for 1 min, dried, and then blocked with BSA/PBS/TWEEN for 2 h at room temperature. Thereafter, the plates were incubated with ^35S-labeled bacteria (1-5×10^6 cpm/ml) diluted in BSA/PBS/TWEEN for another 2 h at room temperature. After washing six times with PBS, and drying, the thin-layer plates were autoradiographed for 12 h using XAR-5 x-ray films (Eastman Kodak, Rochester, N.Y.).
# [2] = test system: F18-positive E. coli strain 107/86; experiment: Carbohydrate inhibition in the in vitro villous adhesion assay (bacteria pre-incubated with saccharide); assay type: cell-based, Escherichia coli; conditions: for Inhibition of F18+ E. coli adherence to porcine intestinal villi: Example 18, 1 mg saccharide in 100 μl PBS
# Description: (§1) The nature of the F18R on porcine small intestinal villous enterocytes was investigated using an in vitro villous adhesion inhibition assay (Cox, E., Houvenaghel, A., 1993. Vet. Microbiol. 34(1), 7-18; Verdonck, F., Cox, E., van Gog, K., Van der Stede, Y., Duchateau, L., Deprez, P., Goddeeris, B. M., 2002. Vaccine 20(23-24), 2995-3004). Briefly, a 20 cm intestinal segment was collected from the mid jejunum of a euthanized pig, rinsed three times with ice cold PBS, and fixed with Krebs-Henseleit buffer (160 mM, pH 7.4) containing 1% (v/v) formaldehyde for 30 min at 4° C. Thereafter, the villi were gently scraped from the mucosae with a glass slide and stored in Krebs-Henseleit buffer at 4° C. Treatment of villi with acetone, methanol, 1% Triton® X-100, 10 mM NaIO4 in 0.2M sodium acetate, pH 4.5, or 0.2M sodium acetate, pH 4.5, without NaIO4, respectively, was performed at room temperature on a rotating wheel in a volume of 500 μl during 1 h. Next, the villi were washed 6 times with Krebs-Henseleit buffer followed by addition of 4×10^8 bacteria of the F18 positive reference E. coli strain (107/86), or the F4ac-expressing E. coli strain GIS 26, to an average of 50 villi in a total volume of 500 μl PBS, supplemented with 1% (w/v) D-mannose in order to prevent adhesion mediated by type 1 pili. These mixtures were incubated at room temperature for 1 h while being gently shaken. Villi were examined by phase-contrast microscopy at a magnification of 600, and the number of bacteria adhering along 50 μm brush border was quantitatively evaluated by counting the number of adhering bacteria at 20 randomly selected places, after which the mean bacterial adhesion was calculated.
# The F18-positive E. coli strain 107/86 (8×10^7 bacteria) was incubated with different concentrations (10 mg/ml, 1 mg/ml, […]) of blood group H type 1 pentasaccharide (Fucα2Galβ3GlcNAcβ3Galβ4Glc) or lacto-N-tetraose saccharide (Galβ3GlcNAcβ3Galβ4Glc) (Glycoseparations, Moscow, Russia) in a final volume of 100 μl PBS, for 1 h at room temperature, while being gently shaken. The mixtures were then added to the villi, and again incubated for 1 h at room temperature with gentle shaking. Thereafter, the villi were examined by phase-contrast microscopy at a magnification of 600, and the number of bacteria adhering along a […] brush border was quantitatively evaluated by counting the number of adhering bacteria at 20 randomly selected places, after which the mean bacterial adhesion was calculated. Villi of two different F18R-positive pigs were used, and the countings were performed in triplicate.
# The F18-positive E. coli strain 107/86 (8×10^7 bacteria) was incubated with 1 mg of blood group H type 1 pentasaccharide (H5-1, Fucα2Galβ3GlcNAcβ3Galβ4Glc), blood group A type 1 hexasaccharide (A6-1, GalNAcα3(Fucα2)Galβ3GlcNAcβ3Galβ4Glc), blood group B type 1 hexasaccharide (B6-1, Galα3(Fucα2)Galβ3GlcNAcβ3Galβ4Glc) or lacto-N-tetraose saccharide (LNT, Galβ3GlcNAcβ3Galβ4Glc) (Elicityl, Grenoble, France) in a final volume of 100 μl PBS, for 1 h at room temperature, while being gently shaken. The mixtures were then added to the villi, and again incubated for 1 h at room temperature with gentle shaking. Thereafter, the villi were examined by phase-contrast microscopy, and adhering bacteria were quantified as described above. Villi of two different F18R-positive pigs were used, and the countings were performed in triplicate.
# The mixtures were then added to the villi, and again incubated for 1 h at room temperature with gentle shaking. Thereafter, the villi were examined by phase-contrast microscopy, and adhering bacteria were quantified as described above. Villi of one F18R-positive pig was used, and the countings were performed in duplicate.
# [3] = test system: F18 positive reference E. coli strain (107/86); experiment: In vitro villous adhesion assay after treatment of porcine villi with agents; assay type: cell-based, Escherichia coli; conditions: villi of four pigs treated 1 h at room temperature; 1% Triton X-100; 10 mM NaIO4 in 0.2M sodium acetate pH 4.5
# Description: as §1
# (§2) To examine the character of the F18R, intestinal villi isolated from four pigs were treated with different agents that affect lipids or carbohydrates on the enterocyte cell membrane. Treatment was followed by assessment of adhesion of F18-fimbriated E. coli to the villus epithelium.
# [4] = test system: F4ac-expressing E. coli strain GIS 26; experiment: In vitro villous adhesion assay after treatment of porcine villi with agents (control strain); assay type: cell-based, Escherichia coli; conditions: villi treated 1 h at room temperature; 1% Triton X-100; 10 mM NaIO4 in 0.2M sodium acetate pH 4.5
# Description: as §1, §2
# [5] = 1 h pre-incubation, villi of two pigs
# [6] = Example 17, 1 mg/ml saccharide, 100 μl PBS, 1 h pre-incubation, villi of two pigs
# [7] = Example 17, 10 mg/ml saccharide, 100 μl PBS, 1 h pre-incubation, villi of two pigs
# [8] = Example 17, 100 mg/ml saccharide (so in the source), 100 μl PBS, 1 h pre-incubation, villi of two pigs
molecule,measurement,setting,value
"GalNAcα3(Fucα2)Galβ4GlcNAcβ3Galβ4Glcβ1Cer [No. 17, reference compound]",Binding of F18-fimbriated E. coli (in words),[1],no type 2 core counterparts of these compounds were recognized
GalNAcα3(Fucα2)Galβ3GalNAcβ3Galα4Galβ4Glcβ1Cer [No. 32],Detection limit of binding of F18-fimbriated E. coli,[1],approximately 0.8 μg
Fucα2Galβ3GlcNAcβ3Galβ4Glcβ1Cer [No. 23],Binding of F18-fimbriated E. coli (in words),[1]; listed as H type 1 pentaglycosylceramide,bound
same,Detection limit of binding of F18-fimbriated E. coli,[1],2 µg
"CC(=O)NC1C(OC2C(O)C(CO)OC(OC3C(CO)OC(O)C(O)C3O)C2O)OC(CO)C(O)C1OC1OC(CO)C(O)C(OC2OC(CO)C(O)C(O)C2O)C1OC1OC(C)C(O)C(O)C1O (centres unmarked) [B6-1, Galα3(Fucα2)Galβ3GlcNAcβ3Galβ4Glc]",Inhibition of F18+ E. coli adherence to porcine intestinal villi,[2]; [5],86.8%
CO [methanol],Adhesion of F18-fimbriated E. coli to porcine intestinal villi after treatment of the villi,[3],completely abolished
same,Adhesion of control F4ac-fimbriated E. coli strain to porcine intestinal villi after treatment of the villi,[4],no or only little effect
"Fucα2Galβ3(Fucα4)GlcNAcβ3Galβ4Glcβ1Cer [No. 22, reference compound]",Binding of F18-fimbriated E. coli (in words),[1],not recognized
"CC(=O)N[C@H]1[C@H](O[C@H]2[C@@H](O)[C@@H](CO)O[C@@H](O[C@H]3[C@H](O)[C@@H](O)C(O)O[C@@H]3CO)[C@@H]2O)O[C@H](CO)[C@@H](O)[C@@H]1O[C@@H]1O[C@H](CO)[C@H](O)[C@H](O)[C@H]1O (some centres unmarked) [LNT, Galβ3GlcNAcβ3Galβ4Glc, reference compound]",Reduction (inhibition) of adherence of F18-positive E. coli to porcine intestinal villi,[2]; [6],5.8%
same,Reduction (inhibition) of adherence of F18-positive E. coli to porcine intestinal villi,[2]; [7],5.8%
same,Inhibition of adherence of F18-positive E. coli to porcine intestinal villi,[2]; [8],4.2%
same,Inhibition of F18+ E. coli adherence to porcine intestinal villi,[2]; [5],2.8%
Galα3(Fucα2)Galβ3(Fucα4)GlcNAcβ3Galβ4Glcβ1Cer [No. 27],Binding of F18-fimbriated E. coli (in words),[1],bound
GalNAcα3(Fucα2)Galβ3GlcNAcβ3Galβ4Glcβ1Cer [A-I],Binding of F18-fimbriated E. coli (in words),[1],F18-fimbriated E. coli binding
"Galβ3GlcNAcβ3Galβ4Glcβ1Cer [No. 20, reference compound]",Binding of F18-fimbriated E. coli (in words),[1],devoid of FedF-mediated binding activity
GalNAcα3(Fucα2)Galβ3(Fucα4)GlcNAcβ3Galβ4Glcβ1Cer [No. 26],Binding of F18-fimbriated E. coli (in words),[1],bound
same,Detection limit of binding of F18-fimbriated E. coli,[1],0.8 µg
"GalNAcα3(Fucα2)Galβ4(Fucα3)GlcNAcβ3Galβ4Glcβ1Cer [No. 19, reference compound]",Binding of F18-fimbriated E. coli (in words),[1],no type 2 core counterparts of these compounds were recognized
"Fucα2Galβ4GlcNAcβ3Galβ4Glcβ1Cer [No. 14, reference compound]",Binding of F18-fimbriated E. coli (in words),[1],no type 2 core counterparts of these compounds were recognized
[Na+].[O-][I+3]([O-])([O-])[O-] [NaIO4],Adhesion of F18-fimbriated E. coli to porcine intestinal villi after treatment of the villi,[3],completely abolished
same,Adhesion of control F4ac-fimbriated E. coli strain to porcine intestinal villi after treatment of the villi,[4],abolished
"Fucα2Galβ3GalNAcβ4Galβ4Glcβ1Cer [No. 11, reference compound]",Binding of F18-fimbriated E. coli (in words),[1],absence of binding
"CC(=O)N[C@H]1[C@H](O[C@H]2[C@@H](O)[C@@H](CO)O[C@@H](O[C@H]3[C@H](O)[C@@H](O)C(O)O[C@@H]3CO)[C@@H]2O)O[C@H](CO)[C@@H](O)[C@@H]1O[C@@H]1O[C@H](CO)[C@H](O)[C@H](O)[C@H]1O[C@@H]1O[C@@H](C)[C@@H](O)[C@@H](O)[C@@H]1O (some centres unmarked) [H5-1, Fucα2Galβ3GlcNAcβ3Galβ4Glc]",Reduction (inhibition) of adherence of F18-positive E. coli to porcine intestinal villi,[2]; [6],68.5%
same,Reduction (inhibition) of adherence of F18-positive E. coli to porcine intestinal villi,[2]; [7],87.1%
same,Inhibition of adherence of F18-positive E. coli to porcine intestinal villi,[2]; [8],1.4%
same,Inhibition of F18+ E. coli adherence to porcine intestinal villi,[2]; [5],52.4%
GalNAcα3(Fucα2)Galβ3GlcNAcβ3Galβ4Glcβ1Cer [No. 25],Binding of F18-fimbriated E. coli (in words),[1]; listed as A type 1 hexaglycosylceramide,bound
same,Detection limit of binding of F18-fimbriated E. coli,[1],approximately 0.08 μg
Fucα2Galβ3GlcNAcβ3Galβ4Glcβ1Cer [O-I],Binding of F18-fimbriated E. coli (in words),[1],F18 fimbriae-binding
Galα3(Fucα2)Galβ3GlcNAcβ3Galβ4Glcβ1Cer [No. 24],Binding of F18-fimbriated E. coli (in words),[1],bound
same,Detection limit of binding of F18-fimbriated E. coli,[1],approximately 0.08 μg
"CC(=O)NC1C(OC2C(O)C(CO)OC(OC3C(O)C(CO)OC(OC4C(O)C(CO)OC(OC5C(CO)OC(O)C(O)C5O)C4O)C3NC(C)=O)C2OC2OC(C)C(O)C(O)C2O)OC(CO)C(O)C1O (centres unmarked) [A6-1, GalNAcα3(Fucα2)Galβ3GlcNAcβ3Galβ4Glc]",Inhibition of F18+ E. coli adherence to porcine intestinal villi,[2]; [5],72.9%
"C[C@@H]1O[C@@H](O[C@H]2C(O)O[C@H](CO)[C@H](O)[C@@H]2O)[C@@H](O)[C@H](O)[C@@H]1O (some centres unmarked) [blood group H disaccharide, Fucα2Gal]",Inhibition of adherence of F18-positive E. coli to porcine intestinal villi,"[2]; Example 21, 0.2 mg in 100 μl PBS, villi of one pig",5.1%
same,Reduction of adherence of F18-positive E. coli to porcine intestinal villi,"[2]; Example 21, 1 mg in 100 μl PBS, villi of one pig",83.7%
"Galα3(Fucα2)Galβ4GlcNAcβ3Galβ4Glcβ1Cer [No. 16, reference compound]",Binding of F18-fimbriated E. coli (in words),[1],no type 2 core counterparts of these compounds were recognized
